The numbers were not newly measured in US20170007537A1, “PHARMACEUTICAL COMPOSITIONS OF ASENAPINE” (HETERO RESEARCH FOUNDATION, priority 2014, published 2017), which cites them from elsewhere.

The conditions of this data set: when swallowed; oral tablet formulation.

Where only a bound is given, the exact number is not on record here.

Take `CN1C[C@H]2c3ccccc3Oc3ccc(Cl)cc3[C@@H]2C1.O=C(O)/C=C\C(=O)O` (racemic) [asenapine, (3aRS,12bRS)-5-Chloro-2-methyl-2,3,3a,12b-tetrahydro-1Hdibenzo[2,3:6,7]oxepino[4,5-c]pyrrole(2Z)-2-butenedioate (1:1)]: the absolute bioavailability is on record as below 2%.
